# Laboratory results from patent publication US7067491B2, “Heterocyclic compounds having elastase-inhibiting activity and intermediates thereof” (Dainippon Pharmaceutical Co., Ltd., priority 2002, dated 2006).
# pIC50: −log10 of the molar value.
# Target: T1, human neutrophil elastase (Homo sapiens, UniProt P08246)
# T1 construct: purchased Elastine Product Co., Inc
# T1 sequence (P08246 30-267): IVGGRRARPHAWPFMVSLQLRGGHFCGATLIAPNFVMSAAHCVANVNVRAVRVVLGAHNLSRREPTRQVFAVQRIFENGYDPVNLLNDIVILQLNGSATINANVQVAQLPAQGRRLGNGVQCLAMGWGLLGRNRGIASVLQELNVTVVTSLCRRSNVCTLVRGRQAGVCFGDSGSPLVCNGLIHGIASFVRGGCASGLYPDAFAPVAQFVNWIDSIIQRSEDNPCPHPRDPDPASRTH
# Assay: Inhibitory activity on human neutrophil elastase (HNE) in vitro
# Format: biochemical
# Settings: human neutrophil elastase 0.2 U/ml, substrate MeO-Suc-Ala-Ala-Pro-Val-pNA 0.5 mM, 37° C., pH 7.5
# Protocol: Experiment 1: Inhibitory Activity on Human Neutrophil Elastase (HNE)
# The inhibitory activity of the compound of the present invention in vitro on human neutrophil elastase was examined by this experiment.
# To 100 mM of HEPES {[N-(2-hydroxyethyl)piperazine-N′-(2-ethanesulfonic acid)], pH 7.5}buffer solution containing 1M NaCl and 0.001% Brij-35 (polyoxyethylene lauryl ether) were added human neutrophil elastase (final concentration: 0.2 U/ml, Elastine Product Co., Inc.) and the compound of the present invention (dissolved in 10% dimethyl sulfoxide; final concentration: 10^−10˜3×10^−3 M). The mixture was pre-incubated for 3 minutes at 37° C. Thereto was added MeO-Suc-Ala-Ala-Pro-Val-pNA (methoxysuccinyl-alanyl-alanyl-prolyl-valyl-p-nitroanilide (Sigma Chemical Co.)) as a substrate to give the final concentration of 0.5 mM, and the reaction was initiated. Under this condition, the producing rate of the reaction product, p-nitroanilide (pNA) at 37° C. was estimated by measuring the absorbance at 404 nm for 3 minutes.
# The inhibitory activity of the compound of the present invention against human neutrophil elastase (HNE) is calculated according to the following formula.
# The concentration of the compound of the present invention to be required to achieve 50% HNE inhibition (i.e., IC50) was calculated based on the concentration-inhibitory rate curve of the compound of the present invention.
# As a comparative compound, N-[(1S)-2-((2S)-2-{N-[(1S)-3,3,3-trifluoro-1-(methylethyl)-2-oxopropyl]carbamoyl}pyrrolidinyl)-1-(methylethyl)-2-oxoethyl](imidazol-4-yl)carboxamide was used, and the same assay was carried out. The planar structure of this compound was the same as one of compound (22) disclosed in J. Med. Chem., 1997, 40, 1876–1885.
row,pIC50,Compound
1,7.80,"CC(C)Oc1cc(C(=O)N[C@H](C(=O)N2CCC[C@H]2C(=O)N[C@H](C(=O)C(F)(F)F)C(C)C)C(C)C)on1 [Example 12, N-[(1S)-2-((2S)-2-{N-[(1S)-3,3,3-trifluoro-1-(methylethyl)-2-oxopropyl]carbamoyl}pyrrolidinyl)-1-(methylethyl)-2-oxoethyl]-[3-(methylethoxy)isoxazol-5-yl]carboxamide]"
2,7.66,"Cc1nsc(C)c1C(=O)N[C@H](C(=O)N1CCC[C@H]1C(=O)N[C@H](C(=O)C(F)(F)F)C(C)C)C(C)C [Example 5, N-[(1S)-2-((2S)-2-{N-[(1S)-3,3,3-trifluoro-1-(methylethyl)-2-oxopropyl]carbamoyl}pyrrolidinyl)-1-(methylethyl)-2-oxoethyl]-(3,5-dimethylisothiazol-4-yl)carboxamide]"
3,7.82,"CC(C)[C@H](NC(=O)c1cc(-c2ccccc2)no1)C(=O)N1CCC[C@H]1C(=O)N[C@H](C(=O)C(F)(F)F)C(C)C [Example 24, N-[(1S)-2-((2S)-2-{N-[(1S)-3,3,3-trifluoro-1-(methylethyl)-2-oxopropyl]carbamoyl}pyrrolidinyl)-1-(methylethyl)-2-oxoethyl]-(3-phenylisoxazol-5-yl)carboxamide]"
4,8.04,"Cc1c(C(=O)N[C@H](C(=O)N2CCC[C@H]2C(=O)N[C@H](C(=O)C(F)(F)F)C(C)C)C(C)C)cnn1-c1ccc(F)cc1 [Example 37, N-[(1S)-2-((2S)-2-{N-[(1S)-3,3,3-trifluoro-1-(methylethyl)-2-oxopropyl]carbamoyl}pyrrolidinyl)-1-(methylethyl)-2-oxoethyl]-[1-(4-fluorophenyl)-5-methylpyrazol-4-yl]carboxamide]"
5,8.07,"Cc1c(C(=O)N[C@H](C(=O)N2CCC[C@H]2C(=O)N[C@H](C(=O)C(F)(F)F)C(C)C)C(C)C)cnn1C(C)(C)C [Example 32, N-[(1S)-2-((2S)-2-{N-[(1S)-3,3,3-trifluoro-1-(methylethyl)-2-oxopropyl]carbamoyl}pyrrolidinyl)-1-(methylethyl)-2-oxoethyl]-(1-tert-butyl-5-methylpyrazol-4-yl)carboxamide]"
6,8.00,"Cc1ccc(-n2ncc(C(=O)N[C@H](C(=O)N3CCC[C@H]3C(=O)N[C@H](C(=O)C(F)(F)F)C(C)C)C(C)C)c2C)cc1 [Example 39, N-[(1S)-2-((2S)-2-{N-[(1S)-3,3,3-trifluoro-1-(methylethyl)-2-oxopropyl]carbamoyl}pyrrolidinyl)-1-(methylethyl)-2-oxoethyl]-[5-methyl-1-(4-methylphenyl)pyrazol-4-yl]carboxamide]"
7,7.92,"Cc1ccc2onc(C(=O)N[C@H](C(=O)N3CCC[C@H]3C(=O)N[C@H](C(=O)C(F)(F)F)C(C)C)C(C)C)c2c1 [Example 18, N-[(1S)-2-((2S)-2-{N-[(1S)-3,3,3-trifluoro-1-(methylethyl)-2-oxopropyl]carbamoyl}pyrrolidinyl)-1-(methylethyl)-2-oxoethyl]-(5-methylbenzo[d]isoxazol-3-yl)carboxamide]"
8,8.09,"Cc1c(C(=O)N[C@H](C(=O)N2CCC[C@H]2C(=O)N[C@H](C(=O)C(F)(F)F)C(C)C)C(C)C)cnn1-c1cccc(F)c1 [Example 46, N-[(1S)-2-((2S)-2-{N-[(1S)-3,3,3-trifluoro-1-(methylethyl)-2-oxopropyl]carbamoyl}pyrrolidinyl)-1-(methylethyl)-2-oxoethyl]-[1-(3-fluorophenyl)-5-methylpyrazol-4-yl]carboxamide]"
9,7.82,"CC(C)[C@H](NC(=O)c1cc(C(C)(C)C)no1)C(=O)N1CCC[C@H]1C(=O)N[C@H](C(=O)C(F)(F)F)C(C)C [Example 23, N-[(1S)-2-((2S)-2-{N-[(1S)-3,3,3-trifluoro-1-(methylethyl)-2-oxopropyl]carbamoyl}pyrrolidinyl)-1-(methylethyl)-2-oxoethyl]-(3-tert-butylisoxazol-5-yl)carboxamide]"

# Further lines, the molecule ahead of its results:
row,Compound,pIC50
1,"Cc1nocc1C(=O)N[C@H](C(=O)N1CCC[C@H]1C(=O)N[C@H](C(=O)C(F)(F)F)C(C)C)C(C)C [Example 21, N-[(1S)-2-((2S)-2-{N-[(1S)-3,3,3-trifluoro-1-(methylethyl)-2-oxopropyl]carbamoyl}pyrrolidinyl)-1-(methylethyl)-2-oxoethyl]-(3-methylisoxazol-4-yl)carboxamide]",7.96
2,"Cc1cc2onc(C(=O)N[C@H](C(=O)N3CCC[C@H]3C(=O)N[C@H](C(=O)C(F)(F)F)C(C)C)C(C)C)c2cc1C [Example 17, N-[(1S)-2-((2S)-2-{N-[(1S)-3,3,3-trifluoro-1-(methylethyl)-2-oxopropyl]carbamoyl}pyrrolidinyl)-1-(methylethyl)-2-oxoethyl]-(5,6-dimethylbenzo[d]isoxazol-3-yl)carboxamide]",7.96
3,"CC(C)[C@H](NC(=O)c1ccc2snnc2c1)C(=O)N1CCC[C@H]1C(=O)N[C@H](C(=O)C(F)(F)F)C(C)C [Example 14, N-[(1S)-2-((2S)-2-{N-[(1S)-3,3,3-trifluoro-1-(methylethyl)-2-oxopropyl]carbamoyl}pyrrolidinyl)-1-(methylethyl)-2-oxoethyl](benzo[d]1,2,3-thiadiazol-5-yl)carboxamide]",7.92
4,"CC(C)[C@H](NC(=O)c1cnn(-c2ccccc2)c1)C(=O)N1CCC[C@H]1C(=O)N[C@H](C(=O)C(F)(F)F)C(C)C [Example 33, N-[(1S)-2-((2S)-2-{N-[(1S)-3,3,3-trifluoro-1-(methylethyl)-2-oxopropyl]carbamoyl}pyrrolidinyl)-1-(methylethyl)-2-oxoethyl]-(1-phenylpyrazol-4-yl)carboxamide]",7.92
5,"CC(C)[C@H](NC(=O)c1cc(-c2ccccc2)on1)C(=O)N1CCC[C@H]1C(=O)N[C@H](C(=O)C(F)(F)F)C(C)C [Example 9, N-[(1S)-2-((2S)-2-(N-[(1S)-3,3,3-trifluoro-1-(methylethyl)-2-oxopropyl]carbamoyl}pyrrolidinyl)-1-(methylethyl)-2-oxoethyl]-(5-phenylisoxazol-3-yl)carboxamide]",8.04
6,"CC(C)[C@H](NC(=O)c1ccc2c(c1)nnn2C(C)C)C(=O)N1CCC[C@H]1C(=O)N[C@H](C(=O)C(F)(F)F)C(C)C [Example 13, N-[(1S)-2-((2S)-2-{N-[(1S)-3,3,3-trifluoro-1-(methylethyl)-2-oxopropyl]carbamoyl}pyrrolidinyl)-1-(methylethyl)-2-oxoethyl]-[1-(methylethyl)benzotriazol-5-yl]carboxamide]",8.20
7,"Cc1nn(-c2ccccc2)c(C)c1C(=O)N[C@H](C(=O)N1CCC[C@H]1C(=O)N[C@H](C(=O)C(F)(F)F)C(C)C)C(C)C [Example 34, N-[(1S)-2-((2S)-2-{N-[(1S)-3,3,3-trifluoro-1-(methylethyl)-2-oxopropyl]carbamoyl}pyrrolidinyl)-1-(methylethyl)-2-oxoethyl]-(3,5-dimethyl-1-phenylpyrazol-4-yl)carboxamide]",8.01

# Test system: pulmonary hemorrhage induced by human neutrophil elastase (HNE)
# Assay: Inhibitory activity on pulmonary hemorrhage induced by human neutrophil elastase (HNE)
# Format: in vivo
# Settings: hamster, dose 3 mg/kg orally, 30 minutes prior to HNE
# Excerpt: Experiment 3: Inhibitory Activity on Pulmonary Hemorrhage Induced by Human Neutrophil Elastase (HNE)
# This experiment tested on in vivo efficacy of the compound of the present invention. When human neutrophil elastase is intratracheally administered to a hamster, the pulmonary hemorrhage is induced. A definite time later after administration of the elastase, in the bronchoalveolar lavage fluid by washing lung via trachea, hemoglobin is detected.
# Hamsters (Syrian strain, 7–10 weeks old male) were divided into groups consisting of 3 to 6, and each group was treated as follows:
# (A) A Group to which the Compound of the Present Invention was not Administered (Disease Control):
# Physiological saline solution (0.2 ml) in which 25 unit of human neutrophil elastase (Elastin Product Co., Inc.) was dissolved was intratracheally administered to a hamster to induce the pulmonary hemorrhage. One hour later after administration of elastase, the hamsters were sacrificed by exsanquination, and alveoli were transtracheally washed twice with physiological saline (2.5 ml), and the hemoglobin concentration in the bronchoalveolar lavage fluid (5 ml) was determined by measuring the absorbance at 414 nm.
# (B) A Group to which the Compound of the Present Invention was Administered:
# A fixed amount of the compound of the present invention was dissolved in dimethyl sulfoxide (DMSO), and thereto was added 0.5% tragacanth gum to prepare a suspension. The suspension was orally administered to a hamster, 30 minutes prior to the administration of human neutrophil elastase (HNE) (final concentration of DMSO, 1%), and then, human neutrophil elastase was administered in the same manner as the above method (A). After 1 hour, the concentration of hemoglobin in the bronchoalveolar lavage fluid was determined in the same manner as the above method (A).
# The hemorrhage inhibition activity of the compound of the present invention is represented as the hemorrhage inhibiting rate in the following formula.
# The dose of the compound of the present invention to be required to achieve 50% inhibition of pulmonary hemorrhage (i.e., ED50) was calculated based on the administration dose-hemorrhage inhibiting rate curve.
# As a comparative example, the same experiment was also carried out on a comparative compound used in Experiment 1.
# Some of the compounds of the present invention were compared with the comparative compound on the hemorrhage inhibitory rate at the dose of 3 mg/kg.
row,Compound,Pulmonary hemorrhage inhibitory rate (%)
1,"CC(C)Oc1cc(C(=O)N[C@H](C(=O)N2CCC[C@H]2C(=O)N[C@H](C(=O)C(F)(F)F)C(C)C)C(C)C)on1 [Example 12, N-[(1S)-2-((2S)-2-{N-[(1S)-3,3,3-trifluoro-1-(methylethyl)-2-oxopropyl]carbamoyl}pyrrolidinyl)-1-(methylethyl)-2-oxoethyl]-[3-(methylethoxy)isoxazol-5-yl]carboxamide]",66
2,"Cc1cc2onc(C(=O)N[C@H](C(=O)N3CCC[C@H]3C(=O)N[C@H](C(=O)C(F)(F)F)C(C)C)C(C)C)c2cc1C [Example 17, N-[(1S)-2-((2S)-2-{N-[(1S)-3,3,3-trifluoro-1-(methylethyl)-2-oxopropyl]carbamoyl}pyrrolidinyl)-1-(methylethyl)-2-oxoethyl]-(5,6-dimethylbenzo[d]isoxazol-3-yl)carboxamide]",59
